The values that follow come from patent publication US9382218B2, “N-heteroaryl substituted aniline derivatives as HCV-antivirals” (priority 2013, dated 2016).

Some results are limits rather than exact numbers.

Assay in all cases: microbe, parasite or virus in culture
For experiment [1], the system named is HCVpp GT-1a (pseudotyped HCV particles, E1/E2 of GT1a H77 strain). The class given is cell-based, Hepatitis C virus GT1a H77 strain. The note with it: Hepatitis C virus, 72 h, read-out: HCVpp GT-1a (EC50, M).
The subject of experiment [2] is VSVpp (pseudotyped VSV G particles). The class given is cell-based. The note with it: Vesicular stomatitis virus, 72 h, read-out: VSVpp (EC50, M).
Experiment [3] relates to HCVpp GT-1b (pseudotyped HCV particles, E1/E2 of GT1b Con1 strain). In kind it is cell-based, Hepatitis C virus GT1b Con1 strain. The note with it: Hepatitis C virus, 72 h, read-out: HCVpp GT-1b (EC50, M).

As to `Nc1cc(Nc2cc(Cl)cc(Cl)c2)[nH]n1` [Compound 1, N^5-(3,5-Dichloro-phenyl)-1H-pyrazole-3,5-diamine], the half-maximal effective concentration (EC50) (commonly the concentration needed to bring the measured effect to its halfway point) is 3.99e-05 M in experiment [1], no less than 0.0001 M in experiment [2] and 6.4e-05 M in experiment [3].

In the case of `Nc1cc(Nc2cc(Cl)c(F)c(Cl)c2)[nH]n1` [Compound 2, N^5-(3,5-Dichloro-4-fluoro-phenyl)-1H-pyrazole-3,5-diamine], the half-maximal effective concentration (EC50) in experiment [2] worked out at 3.4e-05 M; in experiment [3], 5.22e-05 M.

`Cc1nnc(Nc2cc(Cl)cc(Cl)c2)o1` [Compound 3, (3,5-Dichloro-phenyl)-(5-methyl-[1,3,4]oxadiazol-2-yl)-amine]: the values for the EC50 in experiment [1], in experiment [2] and in experiment [3] were 3.93e-05 M, no less than 0.0001 M and 3.58e-05 M, respectively.

`Nc1nc(Nc2cccc(C(F)(F)F)c2)no1` [Compound 4, N^3-(3-Trifluoromethyl-phenyl)-[1,2,4]oxadiazole-3,5-diamine]: the EC50 is 1.36e-06 M in experiment [1], greater than 0.0001 M in experiment [2] and 6.06e-06 M in experiment [3].

With `Nc1noc(Nc2cc(Cl)cc(Cl)c2)n1` [Compound 5, N^5-(3,5-Dichloro-phenyl)-[1,2,4]oxadiazole-3,5-diamine], the EC50 was 8.63e-06 M in experiment [1], 9.8e-06 M in experiment [2] and 9.22e-06 M in experiment [3].

As to `Nc1nc(Nc2cc(Cl)cc(Cl)c2)no1` [Compound 6, N^3-(3,5-Dichloro-phenyl)-[1,2,4]oxadiazole-3,5-diamine], the EC50 in experiment [1] was 3.55e-06 M; in experiment [2], 8.6e-05 M; in experiment [3], 1.03e-05 M.

`Nc1nc(Nc2cc(Cl)cc(C(F)(F)F)c2)no1` [Compound 8, N^3-(3-Chloro-5-trifluoromethyl-phenyl)-[1,2,4]oxadiazole-3,5-diamine]: the values for the EC50 in experiment [2] and in experiment [3] were no less than 0.0001 M and 9.03e-06 M, respectively.

As to `CS(=O)(=O)Nc1cccc(-c2c(Cl)cc(Nc3nc(N)no3)cc2C(F)(F)F)c1` [Compound 9, N-[4′-(3-Amino-[1,2,4]oxadiazol-5-ylamino)-6′-chloro-2′-trifluoromethyl-biphenyl-3-yl]-methanesulfonamide], the EC50 in experiment [2] came out at 7.04e-06 M; in experiment [3] it was 2.99e-06 M.

As for `CS(=O)(=O)Nc1cccc(-c2c(Cl)cc(Nc3noc(N)n3)cc2C(F)(F)F)c1` [Compound 10, N-[4′-(5-Amino-[1,2,4]oxadiazol-3-ylamino)-6′-chloro-2′-trifluoromethyl-biphenyl-3-yl]-methanesulfonamide], the EC50 in experiment [2] is 9.87e-06 M; in experiment [3] it was 1.53e-06 M.

Consider `Nc1cnc(Nc2cc(Cl)cc(Cl)c2)o1` [Compound 11, N^2-(3,5-Dichloro-phenyl)-oxazole-2,5-diamine], for which the concentration for a half-maximal effect (EC50) in experiment [1] is 2.93e-05 M; in experiment [2], no less than 0.0001 M.
